Patent US20180085373A1, “THERAPEUTIC AND/OR PROPHYLACTIC AGENT FOR LEWY BODY DISEASE” (KYOWA HAKKO KIRIN CO., LTD., priority 2015, published 2018)

Tests used:
Slc:ICR mice [1] = assay: Gait test (CatWalk XT), evaluation of motor function in NAC61-95 α-synucleinopathy model; assay type: in vivo; conditions: NAC61-95-treated mice
Method: (§1) By reference to articles (Science, 338, p. 949 (2012); Behavioral Brain Research, 208, p. 274 (2010)), an animal model capable of confirming a therapeutic and/or prophylactic effect on α-synucleinopathy (for example, Lewy body disease, the Lewy body disease includes cognitive impairment in Parkinson's disease, diffuse Lewy body disease, dementia with Lewy bodies, movement disorder associated with Lewy body disease and the like) was prepared as follows.
(§2) The cognitive function was evaluated using a spontaneous alternation task. The spontaneous alternation task is known as an evaluation system of cognitive function utilizing properties of an animal to willingly explore a novel environment (Neuroscience and Biobehavioral Reviews 28, p. 497 (2004)). That is, if the animal remembers the arm into which it entered previously in an exploration in a Y-maze apparatus, the behavior of spontaneous entry into a different arm was expressed by an alternation behavior rate, and used as an index of cognitive function. The motor function was evaluated by analyzing gait function under natural walk conditions using a gait function/automatic gait analysis system.
(§3) NAC61-95 (custom, Sigma) was dissolved in PBS to prepare 4 μg/μL NAC61-95 solution.
(§4) Under pentobarbital (Somnopentyl, Kyoritsuseiyaku) (50 mg/kg, i.p.) anesthesia, 5 μL of NAC61-95 solution was injected using a Hamilton syringe (10 μL) equipped with a double needle (27G, needle length 3 mm) into the right lateral cerebral ventricle of Slc:ICR mice (male, Japan SLC) over about 1 minute, and stood for 1 minute to induce cognitive impairment and/or movement disorder.
As for a sham treatment group, under pentobarbital anesthesia, 5 μL of PBS was injected using a Hamilton syringe equipped with a double needle into the right lateral cerebral ventricle of Slc:ICR mice over about 1 minute, and stood for 1 minute.
A gait function/automatic gait analysis system (CatWalk XT, ver.9.1, Noldus) was used. The system consisted of a walkway with pressure-sensitive luminescent glass and a light source, a luminescent ceiling, a highly sensitive high-speed camera and an analysis software, and the gait was analyzed by digitizing the brightness of the light emitted by the pressure-sensitive luminescent glass in response to the pressure. The gait data was automatically recorded and analyzed by the analysis software only when a mouse moved straight forward without stopping in the predetermined area on the walkway.
The mice were brought into the experiment room with light off and habituated for not less than 1 hour. A mouse was placed in the apparatus, and allowed to walk freely until 6 running data were obtained for each individual. The first three running data amenable to analyze were taken up, and their mean was calculated.
At 60 minutes before the test, istradefylline (suspended in 0.5 w/v % aqueous MC solution, and prepared to 0.5 mL per 100 g body weight of a mouse on the administration day) was orally administered at a dose of 1.0 mg/kg, or a vehicle (0.5 w/v % aqueous MC solution) free of the test compound was orally administered at 0.5 mL per 100 g body weight of a mouse on the administration day.

Slc:ICR mice [2] = assay: Spontaneous alternation task test (Y-maze), evaluation of cognitive function in NAC61-95 α-synucleinopathy model; assay type: in vivo; conditions: NAC61-95-treated mice
Method: as §1, §2, §3
as §4, with “disorder. […]” for “disorder.”
Mice were brought into the experiment room from the previous day of test for habituation. […] Entry of all four limbs of a mouse into one arm was defined as entry into the arm, and the order of entry of the mouse into the arm was recorded. A behavior of successive entry into all three different arms was defined as spontaneous alternation behavior, and the percentage of alternation behavior was calculated by the following calculation formula. […]

[3] = 1.0 mg/kg orally 60 minutes before the test, mean±standard error

## CCn1c(=O)c2c(nc(/C=C/c3ccc(OC)c(OC)c3)n2C)n(CC)c1=O [istradefylline]
Slc:ICR mice [1]; AA: right forepaw→right hindpaw→left forepaw→left hindpaw, 1.0 mg/kg orally, mean±standard error
  gait pattern (mean) AA: 4.3 ± 2.8
Slc:ICR mice [1]; AB: right forepaw→left hindpaw→left forepaw→right hindpaw, 1.0 mg/kg orally, mean±standard error
  gait pattern (mean) AB: 76.7 ± 7.1
Slc:ICR mice [1]; CA: right forepaw→left forepaw→right hindpaw→left hindpaw, 1.0 mg/kg orally, mean±standard error
  gait pattern (mean) CA: 10.3 ± 3.6
Slc:ICR mice [1]; CB: right forepaw→left hindpaw→right hindpaw→left forepaw, 1.0 mg/kg orally, mean±standard error
  gait pattern (mean) CB: 8.7 ± 4.3
Slc:ICR mice [1]; 1.0 mg/kg orally
  change in gait pattern CB: decreased
  improvement ratio, gait pattern CB: 100%
  improvement ratio, maximum brightness ratio of the left hindpaw: 111%
  movement disorder induced by NAC61-95 treatment: improved
Slc:ICR mice [1]; [3]
  maximum brightness ratio, left forepaw: 51.5 ± 1.8
  maximum brightness ratio, left hindpaw: 65.3 ± 1.7
  maximum brightness ratio, right forepaw: 52.5 ± 2.4
  maximum brightness ratio, right hindpaw: 61.9 ± 2.4
  print area, left forepaw: 0.35 ± 0.02
  print area, left hindpaw: 0.38 ± 0.04
  print area, right forepaw: 0.33 ± 0.03
  print area, right hindpaw: 0.38 ± 0.04
Slc:ICR mice [1]; 1.0 mg/kg orally, p<0.05, Student's t-test
  change in the maximum brightness ratio of the left hindpaw: significant increase
Slc:ICR mice [1]; median, 1.0 mg/kg orally
  gait pattern (median) AA: 0.0
  gait pattern (median) AB: 84.6
  gait pattern (median) CA: 6.7
  gait pattern (median) CB: 0.0
Slc:ICR mice [2]; 1.0 mg/kg orally
  cognitive impairment by NAC61-95 treatment: improved
Slc:ICR mice [2]; [3]
  alternation behavior (%): 66.4 ± 1.4%
Slc:ICR mice [2]; 1.0 mg/kg orally, p<0.05, Aspin-Welch test
  alternation behavior as compared to the vehicle administration group: significantly high
